Read-outs that look alike come from different tables or passages of the source.
Tests used:
[1] = Microsomal stability (rat); format: in vitro ADME; conditions: rat microsomes
PAMPA permeability = format: in vitro ADME
[2] = tested on: Asexual parasites of P. falciparum strain 3D7; assay: In vitro drug activity on asexual parasites (SYBR Green assay); format: cell-based, Plasmodium falciparum
Protocol: Cell culture. Asexual parasites of P. falciparum strain 3D7 were cultured as described previously [Trager W, et al., Journal of Parasitology 2005, 91: 484-486], Stage III-V gametocytes were selected and enriched with 3-day treatment with 50 mM N-acetylglucosamine (NAG) and the following Percoll density gradient centrifugation after gametocyte production [Tanaka T Q, et al., Molecular and Biochemical Parasitology, 2011, 111: 160-163], Gametocytes of HB3 and Dd2 strains were produced and then set up for assay in a similar process. HepG2 cells (ATCC, cat. no. 77400) were cultured in 175-cm^2 tissue culture flasks with 30 ml growth medium at 37° C. in a 5% CO2 humidified atmosphere. Growth medium was made with Dulbecco's Modified Eagle Medium with 10% fetal bovine serum (FBS). Growth medium was replaced every other day and cells were passed at 75% confluence.
Asexual parasites of P. falciparum strain 3D7 were cultured as described previously (Trager, W. et al., J. Parasitol. 2005, 91(3): 484-486). Drug activity on asexual stage parasites was tested using a SYBR Green assay as described previously (Eastman, R. T. et al., Antimicrob. Agents Chemother. 2013, 57(1): 425-435; Smilkstein, M. et al., Antimicrob. Agents Chemother. 2004, 48(5): 1803-1806). Briefly, parasites were diluted to 0.5% parasitemia in complete culture medium with 2% hematocrit and drugs diluted in DMSO (≤0.5%) and were loaded into a 96-well plate (200 μl/well). No drug and RBC alone wells were included as positive and background controls, respectively, and each testing condition was examined in duplicated. After 72 h incubation under the standard culture condition and a freeze-thaw lysis step at −80° C. and room temperature, 100 μl/well of lysis buffer containing SYBR Green I was added to the parasite culture and incubated for 30 min at room temperature. The fluorescence of each well was measured at 520 nm following excitation at 490 nm using a FLUOstar Optima™ microplate reader (BMG Labtech).

Solubility at pH 7.4 = format: physicochemical
mTOR = mTOR (Homo sapiens, UniProt P42345); assay: mTOR activity (no method described); format: biochemical
[3] = P. falciparum 3D7 asexual parasites, 72 h, SYBR Green

Compound	Microsomal Stability (rat) T1/2 [1]	PAMPA Permeability (×10^6 cm/s) (PAMPA permeability)	EC50 [2, 3]	Sol @ pH 7.4 (ug/mL) (Solubility at pH 7.4)	mTOR (mTOR)	PAMPA Permeability (PAMPA permeability)	EC50 [2]	Sol @ pH 7.4 (Solubility at pH 7.4)
Cc1cc(S(C)(=O)=O)ccc1-n1c(=O)ccc2cnc3ccc(-c4ccc(N)nc4)cc3c21 [Compound 70]	31.3 min	148.4 ×10^6 cm/s	20.1 nM	1.2 ug/mL				
CN(C)CCc1ccc(-c2ccc3ncc4ccc(=O)n(-c5ccc(S(C)(=O)=O)cc5)c4c3c2)cc1 [Compound 68]	>30 min	148.7 ×10^6 cm/s	131 nM	15.7 ug/mL				
CS(=O)(=O)c1ccc(-n2c(=O)ccc3cnc4ccc(-c5ccc(N)nc5)cc4c32)cc1Cl [Compound 61]	>30 min	<1 ×10^6 cm/s	8.49 nM	2.3 ug/mL				
CS(=O)(=O)c1ccc(-n2c(=O)ccc3cnc4ccc(-c5ccc(CN6CCCC6)cc5)cc4c32)cc1 [Compound 33]	>30 min	439.2 ×10^6 cm/s	288 nM	61 ug/mL				
O=C1NC(=O)c2cc(-n3c(=O)ccc4cnc5ccc(-c6ccc(Cl)cc6)cc5c43)ccc21 [Compound 379]	23 min	31 ×10^6 cm/s	2960 nM	<1 ug/mL				
CS(=O)(=O)c1ccc(-n2c(=O)ccc3cnc4ccc(-c5ccc(C6(N)CC6)cc5)cc4c32)cc1 [Compound 36]	>30 min	6.5 ×10^6 cm/s	188 nM	5.9 ug/mL				
CNCc1cc(-n2c(=O)ccc3cnc4ccc(-c5ccc(Cl)cc5)cc4c32)ccc1C(=O)N1CCOCC1 [Compound 200]					15.37 µM	1070 ×10⁻⁶ cm/s	60 nM	7.2 ug/mL
CS(=O)(=O)c1ccc(-n2c(=O)ccc3cnc4ccc(-c5ccc(Cl)cc5)cc4c32)cc1CN1CCNCC1 [Compound 35]	>30 min	35 ×10^6 cm/s	75.8 nM	4.3 ug/mL				
Cc1cc(N2CCNCC2)c(C#N)cc1-n1c(=O)ccc2cnc3ccc(-c4ccc(Cl)cc4)cc3c21 [Compound 11]	9.6 min	21 ×10^6 cm/s		<1 ug/mL				
O=C(NCCCN1CCS(=O)(=O)CC1)c1ccc(-n2c(=O)ccc3cnc4ccc(-c5ccc(Cl)cc5)cc4c32)cc1 [Compound 261]	1.7 min				1.871 µM		60 nM	0 ug/mL
N#Cc1cc(-n2c(=O)ccc3cnc4ccc(-c5ccc(Cl)cc5)cc4c32)ccc1C(=O)N1CCOCC1 [Compound 271]	14 min				16.14 µM		613 nM	0 ug/mL
Cc1cc(S(C)(=O)=O)ccc1-n1c(=O)ccc2cnc3ccc(-c4ccc(CN(C)C)cc4)cc3c21 [Compound 69]	>30 min	828.3 ×10^6 cm/s	1940 nM	>73 ug/mL				
O=C(c1ccc(-n2c(=O)ccc3c(Cl)nc4ccc(-c5ccc(Cl)cc5)cc4c32)cc1)N1CCOCC1 [Compound 210]	2.7 min				100 µM		14500 nM	<1 ug/mL
Cc1cc(S(C)(=O)=O)ccc1-n1c(=O)ccc2cnc3ccc(-c4ccc(Cl)cc4)cc3c21 [Compound 34]	17.1 min	<1 ×10^6 cm/s	59.4 nM	<1 ug/mL				
Cc1cc(C(=O)NC2CC2)ccc1-n1c(=O)ccc2cnc3ccc(-c4ccc(C5(N)CC5)cc4)cc3c21 [Compound 224]					100 µM	< 1 ×10⁻⁶ cm/s	46000 nM	>74 ug/mL
O=C(NCCCN(CCO)CCO)c1ccc(-n2c(=O)ccc3cnc4ccc(-c5ccc(Cl)cc5)cc4c32)cc1 [Compound 259]	2.6 min				0.6559 µM		24.2 nM	0 ug/mL
O=C(NCCN1CCCCC1)c1ccc(-n2c(=O)ccc3cnc4ccc(-c5ccc(Cl)cc5)cc4c32)cc1 [Compound 265]	1.9 min				2.064 µM		132 nM	0 ug/mL

Compound	Microsomal Stability (rat) T1/2 [1]	PAMPA Permeability (×10^6 cm/s) (PAMPA permeability)	EC50 [2, 3]	Sol @ pH 7.4 (ug/mL) (Solubility at pH 7.4)	mTOR (mTOR)	PAMPA Permeability (PAMPA permeability)	EC50 [2]	Sol @ pH 7.4 (Solubility at pH 7.4)
Cc1cc(C(=O)NC2CC2)ccc1-n1c(=O)ccc2cnc3ccc(-c4ccc(F)cc4)cc3c21 [Compound 223]					7.119 µM	1180 ×10⁻⁶ cm/s	58 nM	3.4 ug/mL
O=C(NC1CCN(CCO)CC1)c1ccc(-n2c(=O)ccc3cnc4ccc(-c5ccc(Cl)cc5)cc4c32)cc1 [Compound 263]	>30 min				1.512 µM		58.8 nM	0 ug/mL
O=C(NC1CC1)c1ccc(-n2c(=O)ccc3cnc4ccc(-c5ccc(F)cc5)cc4c32)cn1 [Compound 301]	>30 min				50 µM		206 nM	<1 ug/mL
CN(C)CCN1CCN(C(=O)c2ccc(-n3c(=O)ccc4cnc5ccc(-c6ccc(C7(N)CC7)cc6)cc5c43)cc2)CC1 [Compound 270]	>30 min				3.254 µM		348 nM	0 ug/mL
NC1(c2ccc(-c3ccc4ncc5ccc(=O)n(-c6ccc(C(=O)N7CCN(CCO)CC7)cc6)c5c4c3)cc2)CC1 [Compound 269]	>30 min				3.874 µM		390 nM	0 ug/mL
CN(C)Cc1ccc(-c2ccc3ncc4ccc(=O)n(-c5ccc6c(c5)C(=O)N(C)C6=O)c4c3c2)cc1 [Compound 352]		343.6 ×10^6 cm/s	18800 nM	>72.0 ug/mL				
O=C1NCc2cc(-n3c(=O)ccc4cnc5ccc(-c6ccc(OC7CCNCC7)cc6)cc5c43)ccc21 [Compound 380]	>30 min	<10.7 ×10^6 cm/s	310 nM	2.6 ug/mL				
O=C(NO)c1ccc(-n2c(=O)ccc3cnc4ccc(-c5ccc(Cl)cc5)cc4c32)cc1 [Compound 303]	>30 min				0.2376 µM		6.45 nM	0.7 ug/mL
CN(C)CCOc1ccc(-c2ccc3ncc4ccc(=O)n(-c5ccc(S(C)(=O)=O)cc5)c4c3c2)cc1 [Compound 71]	>30 min	133.5 ×10^6 cm/s	56.6 nM	2 ug/mL				
O=C(NCCN1CCOCC1)c1ccc(-n2c(=O)ccc3cnc4ccc(-c5ccc(F)cc5)cc4c32)cc1 [Compound 268]	2 min				4.985 µM		211 nM	0 ug/mL
COc1cc(C(=O)NCCN2CCCC2)ccc1-n1c(=O)ccc2cnc3ccc(-c4ccc(Cl)cc4)cc3c21 [Compound 248]	10.6 min				23.38 µM		329 nM	51.2 ug/mL
CC(N)c1ccc(-c2ccc3ncc4ccc(=O)n(-c5ccc6c(c5)CNC6=O)c4c3c2)cc1 (stereo not drawn) [Compound 381]	>30 min	4 ×10^6 cm/s		44.9 ug/mL				
O=C(NCCN1CCNCC1)c1ccc(-n2c(=O)ccc3cnc4ccc(-c5ccc(Cl)cc5)cc4c32)cc1 [Compound 98]	>30 min				0.994 µM		19.3 nM	0 ug/mL
O=C(NCCCN1CCCC1)c1ccc(-n2c(=O)ccc3cnc4ccc(-c5ccc(F)cc5)cc4c32)cc1 [Compound 267]	8 min				3.878 µM		58.1 nM	0 ug/mL
CC(C)(C)OC(=O)CN1Cc2cc(-n3c(=O)ccc4cnc5ccc(-c6ccc(Cl)cc6)cc5c43)ccc2C1=O [Compound 364]	>30 min	75.9 ×10^6 cm/s	4580 nM	2.7 ug/mL				
NCCCN1Cc2cc(-n3c(=O)ccc4cnc5ccc(-c6ccc(Cl)cc6)cc5c43)ccc2C1=O [Compound 343]	>30 min	<2.5 ×10^6 cm/s	20.9 nM	13.4 ug/mL				

— patent US11753408B2, “Compounds and method for blocking transmission of malarial parasite” (The United States of America, as represented by the …, priority 2016, dated 2023)
